How the values were obtained:
Experiment in all cases: relative viability (nuclei count vs DMSO), 5 days (fraction); higher = more cells survive
[1] = compound: CC1=C(C(=O)N2C=CSC2=N1)CCN3CCC(=C(C4=CC=CC=C4)C5=CC=C(C=C5)F)CC3 + Cc1cc(Nc2cc(N3CCN(C)CC3)nc(Sc3ccc(NC(=O)C4CC4)cc3)n2)n[nH]1 [Tozasertib] (partner 0.1 µM)
Summary of the method: (§1)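 Each reported value is a median over duplicate plates. It expresses relative viability: treated-well nuclei count divided by vehicle-well nuclei count. Lung cancer cell lines in 1536-well plates were dosed by pin tool a day after seeding, alone with one drug or with a fixed anchor-drug dose plus five library-drug doses (not always all listed) in √10 steps, and nuclei were counted after 5 days.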

[2] = compound: CC1=C(C(=O)N2C=CSC2=N1)CCN3CCC(=C(C4=CC=CC=C4)C5=CC=C(C=C5)F)CC3 + COc1cc2c(Oc3ccc(NC(=O)C4(C(=O)Nc5ccc(F)cc5)CC4)cc3F)ccnc2cc1OCCCN1CCOCC1 [Foretinib] (partner 0.25 µM)
Summary of the method: as §1

[3] = compound: CC1=C(C(=O)N2C=CSC2=N1)CCN3CCC(=C(C4=CC=CC=C4)C5=CC=C(C=C5)F)CC3 + NC(=O)Nc1cc(-c2cccc(F)c2)sc1C(=O)N[C@H]1CCCNC1 [AZD7762] (partner 0.2 µM)
Summary of the method: as §1

[4] = compound: CC1=C(C(=O)N2C=CSC2=N1)CCN3CCC(=C(C4=CC=CC=C4)C5=CC=C(C=C5)F)CC3 + CCNC(=O)c1noc(-c2cc(C(C)C)c(O)cc2O)c1-c1ccc(CN2CCOCC2)cc1 [Luminespib] (partner 0.01 µM)
Summary of the method: as §1

Cell Line	relative viability ([1]; first compound 0.08 µM)	relative viability ([1]; first compound 0.253 µM)	relative viability ([1]; first compound 0.8 µM)	relative viability ([1]; first compound 2.53 µM)	relative viability ([1]; first compound 8 µM)	relative viability ([2]; first compound 0.08 µM)	relative viability ([2]; first compound 0.253 µM)	relative viability ([2]; first compound 0.8 µM)	relative viability ([2]; first compound 2.53 µM)	relative viability ([2]; first compound 8 µM)	relative viability ([3]; first compound 0.08 µM)	relative viability ([3]; first compound 0.253 µM)	relative viability ([3]; first compound 0.8 µM)	relative viability ([3]; first compound 2.53 µM)	relative viability ([3]; first compound 8 µM)	relative viability ([4]; first compound 0.08 µM)	relative viability ([4]; first compound 0.253 µM)	relative viability ([4]; first compound 0.8 µM)	relative viability ([4]; first compound 2.53 µM)	relative viability ([4]; first compound 8 µM)
NCI-H1915	0.438	0.442	0.444	0.432	0.318	1.1	0.964	1.1	1.18	0.535	0.714	0.802	0.662	0.75	0.518	1.01	0.655	0.797	0.656	0.499
NCI-H1944	0.26	0.273	0.226	0.224	0.204	0.8	1.12	0.891	0.862	0.539	0.482	0.491	0.461	0.469	0.43	0.782	0.926	0.751	0.775	0.584
NCI-H1975	0.852	0.63	0.816	0.922	0.37	1.04	0.664	0.965	1.21	0.591	0.658	0.76	0.769	0.738	0.618	0.202	0.303	0.167	0.292	0.181
NCI-H1993	0.627	0.502	0.557	0.64	0.495	0.701	0.677	0.757	0.915	0.682	0.501	0.632	0.726	0.73	0.63	0.79	0.841	0.916	0.897	0.768
NCI-H2085	0.896	0.735	0.747	0.844	0.702	0.882	1.05	1.07	1.05	0.7	1.06	1.29	0.92	1.03	0.89	0.361	0.362	0.458	0.392	0.323
NCI-H2087	0.298	0.245	0.276	0.242	0.23	0.989	1.2	1.17	1.24	0.528	1.21	1.36	1.58	1.24	0.506	0.132	0.208	0.22	0.185	0.142
NCI-H2126	0.889	0.913	0.846	0.986	0.739	1.08	1.1	1.19	1.22	0.927	1.07	0.961	1.03	1.04	0.705	0.613	1.08	0.903	0.92	0.843
NCI-H2170	0.704	0.804	0.741	0.781	0.404	0.874	1.03	1.11	1.06	0.674	0.696	0.884	0.932	0.76	0.462	0.516	0.733	0.745	0.838	0.537

— the supplement of paper PMC10307832
